In patent US11578061B2, “Inhibitors of LRRK2 kinase” (Halia Therapeutics, Inc., priority 2021, dated 2023):

target: recombinant human LRRK2 (catalytic domain only [amino acids 970-2527], GST-tagged) (Homo sapiens (Human), UniProt Q5S007); assay: LRRK2 Enzymatic Assay; format: biochemical; conditions: LRRKtide substrate, [32P]-ATP
Outline: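 Radiometric P81 filter-binding read-out of [32P]-ATP transfer to LRRKtide (20 μM) by 30 nM GST-LRRK2 970-2527, 2 h at room temperature after 20 min compound preincubation (10 μM–0.5 nM, 1% DMSO). IC50 derived from % remaining activity versus DMSO.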

Sequence of recombinant human LRRK2 (catalytic domain only [amino acids 970-2527], GST-tagged) (Q5S007 970-2527): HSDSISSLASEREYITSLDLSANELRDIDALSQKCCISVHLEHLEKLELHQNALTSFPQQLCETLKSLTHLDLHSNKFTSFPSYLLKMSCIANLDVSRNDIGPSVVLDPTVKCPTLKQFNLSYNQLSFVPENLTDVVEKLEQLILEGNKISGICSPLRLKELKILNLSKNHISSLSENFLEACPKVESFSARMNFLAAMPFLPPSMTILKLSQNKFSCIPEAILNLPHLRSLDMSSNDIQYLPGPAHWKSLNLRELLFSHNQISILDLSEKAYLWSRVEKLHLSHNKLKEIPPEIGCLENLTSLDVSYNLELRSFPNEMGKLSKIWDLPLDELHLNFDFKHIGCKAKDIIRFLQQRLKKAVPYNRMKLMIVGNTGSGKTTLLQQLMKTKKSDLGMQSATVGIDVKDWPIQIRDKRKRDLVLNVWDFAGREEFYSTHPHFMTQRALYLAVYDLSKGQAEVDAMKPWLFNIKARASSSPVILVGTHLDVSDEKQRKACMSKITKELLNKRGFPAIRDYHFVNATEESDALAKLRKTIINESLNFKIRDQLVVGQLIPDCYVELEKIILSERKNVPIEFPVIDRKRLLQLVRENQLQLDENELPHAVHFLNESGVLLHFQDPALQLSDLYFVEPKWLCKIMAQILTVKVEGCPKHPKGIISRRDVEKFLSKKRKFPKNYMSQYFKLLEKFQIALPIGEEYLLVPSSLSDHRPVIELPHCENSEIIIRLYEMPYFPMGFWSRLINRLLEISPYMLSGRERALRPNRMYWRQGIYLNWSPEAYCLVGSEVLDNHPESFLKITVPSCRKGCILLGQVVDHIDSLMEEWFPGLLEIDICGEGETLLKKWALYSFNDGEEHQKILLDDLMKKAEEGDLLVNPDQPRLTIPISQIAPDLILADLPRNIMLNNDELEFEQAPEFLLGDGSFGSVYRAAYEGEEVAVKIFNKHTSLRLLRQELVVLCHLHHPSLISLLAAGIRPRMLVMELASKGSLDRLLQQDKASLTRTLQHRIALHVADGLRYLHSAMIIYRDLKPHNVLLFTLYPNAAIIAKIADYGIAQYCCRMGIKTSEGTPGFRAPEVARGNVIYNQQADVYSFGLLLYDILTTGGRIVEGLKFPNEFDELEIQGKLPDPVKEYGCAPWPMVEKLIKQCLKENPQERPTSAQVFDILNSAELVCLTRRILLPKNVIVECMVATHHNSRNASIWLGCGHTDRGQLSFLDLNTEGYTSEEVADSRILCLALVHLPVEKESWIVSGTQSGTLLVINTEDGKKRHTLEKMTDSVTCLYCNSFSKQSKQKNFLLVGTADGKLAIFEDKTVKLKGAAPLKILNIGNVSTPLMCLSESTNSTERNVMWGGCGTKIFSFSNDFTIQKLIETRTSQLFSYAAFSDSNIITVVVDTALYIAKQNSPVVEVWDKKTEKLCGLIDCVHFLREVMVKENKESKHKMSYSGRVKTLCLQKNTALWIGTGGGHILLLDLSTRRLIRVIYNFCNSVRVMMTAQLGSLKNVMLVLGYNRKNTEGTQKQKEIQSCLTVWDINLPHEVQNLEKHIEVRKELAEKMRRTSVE

Structure (SMILES) | IC50 [µM]
COCCn1cc(Nc2ncc(F)c(OC[C@H]3CC[C@H](NC(C)=O)CC3)n2)cn1 [Example 191, N-((1R,4R)-4-(((5-fluoro-2-((1-(2-methoxyethyl)-1H-pyrazol-4-yl)amino)pyrimidin-4-yl)oxy)methyl)cyclo-hexyl)acetamide] | < 0.05
Cn1cc(Nc2ncc(F)c(OC[C@H]3CC[C@H](O)CC3)n2)cn1 [Example 216, (1R,4R)-4-(((5-fluoro-2-((1-methyl-1H-pyrazol-4-yl)amino)pyrimidin-4-yl)oxy)methyl)cyclohexan-1-ol] | < 0.05
CC(=O)N[C@H]1CC[C@H](COc2nc(Nc3cnn(CC(F)(F)F)c3)ncc2F)CC1 [Example 188, N-((1R,4R)-4-(((5-fluoro-2-((1-(2,2,2-trifluoroethyl)-1H-pyrazol-4-yl)amino)pyrimidin-4-yl)oxy)methyl)cyclo-hexyl)acetamide] | < 0.05
CN[C@H]1CC[C@H](COc2nc(Nc3ccc(N4CCOCC4)cc3)ncc2F)CC1 [Example 42, 5-fluoro-4-(((1R,4R)-4-(methylamino)cyclo-hexyl)methoxy)-N-(4-morpholinophenyl) pyrimidin-2-amine] | < 0.05
CC(C)n1cc(Nc2ncc(F)c(OC[C@H]3CC[C@H](C(C)(C)O)CC3)n2)cn1 [Example 255, 2-((1R,4R)-4-(((5-fluoro-2-((1-isopropyl-1H-pyrazol-4-yl)amino)pyrimidin-4-yl)oxy)methyl)cyclohexyl)propan-2-ol] | 0.05 to 0.2
O[C@H]1CC[C@H](COc2nc(Nc3ccc(N4CC5(CCOC5)C4)cc3)ncc2F)CC1 [Example 215, (1R,4R)-4-(((2-((4-(6-oxa-2-azaspiro[3.4]octan-2-yl)phenyl)amino)-5-fluoropyrimidin-4-yl)oxy)methyl)cyclohexan-1-ol] | < 0.05
CC(=O)NC12CCC(COc3ccnc(Nc4ccc(N5CCOCC5)cc4)n3)(CC1)CC2 [Example 77, N-(4-(((2-((4-morpholinophenyl)amino)pyrimidin-4-yl)oxy)methyl)bicyclo [2.2.2]octan-1-yl)acetamide] | > 0.4
CN[C@H]1CC[C@H](COc2nc(Nc3cn(C(C)(C)C#N)nc3C)ncc2Cl)CC1 [Example 39, 2-(4-((5-chloro-4-(((1R,4R)-4-(methylamino)cyclo-hexyl)methoxy)py-rimidin-2-yl)amino)-3-methyl-1H-pyrazol-1-yl)-2-methylpropanenitrile] | < 0.05
Cc1nn(C(C)(C)C#N)cc1Nc1ncc(Cl)c(OCC2CCC(C)(O)CC2)n1 (stereo not shown) [Example 135, 2-(4-((5-chloro-4-((4-hydroxy-4-methylcyclohexyl)methoxy)pyrimidin-2-yl)amino)-3-methyl-1H-pyrazol-1-yl)-2-methylpropanenitrile] | < 0.05
Cc1nn(C2CC(C#N)C2)cc1Nc1ncc(Cl)c(OCC2CC(F)(F)C2)n1 (stereo not shown) [Example 160, 3-(4-((5-chloro-4-((3,3-difluorocyclobutyl)methoxy)pyrimidin-2-yl)amino)-3-methyl-1H-pyrazol-1-yl)cyclobutane-1-carbonitrile] | 0.05 to 0.2
Cc1nn(C(C)(C)C#N)cc1Nc1ncc(F)c(OCC2CS(=O)(=O)C2)n1 [Example 289, 2-(4-((4-((1,1-dioxidothietan-3-yl)methoxy)-5-fluoropyrimidin-2-yl)amino)-3-methyl-1H-pyrazol-1-yl)-2-methylpropanenitrile] | > 0.4
C[C@@H]1CN(c2ccc(Nc3ncc(Cl)c(OCC4CCC(O)CC4)n3)cc2)C[C@H](C)O1 (stereo partly drawn) [Example 120, 4-(((5-chloro-2-((4-((2S,6R)-2,6-dimethylmorpholino)phenyl)amino)pyrimidin-4-yl)oxy)methyl)cyclohexan-1-ol] | < 0.05
C[C@@H]1CN(c2ccc(Nc3nccc(OCC4CCC(CO)CC4)n3)cc2)C[C@H](C)O1 (stereo partly drawn) [Example 141, (4-(((2-((4-((2R,6S)-2,6-dimethylmorpholino)phenyl)amino)pyrimidin-4-yl)oxy)methyl)cyclohexyl)methanol] | 0.05 to 0.2
CC(=O)N[C@H]1CC[C@H](COc2ccnc(Nc3ccc(N4CCOCC4)cc3)n2)CC1 [Example 72, N-((1R,4R)-4-(((2-((4-morpholinophenyl)amino)pyrimidin-4-yl)oxy)methyl)cyclo-hexyl)acetamide] | 0.05 to 0.2
CC(C)(O)[C@H]1CC[C@H](COc2nc(Nc3ccc(N4CCOCC4)cc3)ncc2Cl)CC1 [Example 137, 2-((1R,4R)-4-(((5-chloro-2-((4-morpholinophenyl)amino)pyrimidin-4-yl)oxy)methyl)cyclohexyl)propan-2-ol] | < 0.05
CCc1nn(C)cc1Nc1ncc(F)c(OC[C@H]2CC[C@H](NC(C)=O)CC2)n1 [Example 198, N-((1R,4R)-4-(((2-((3-ethyl-1-methyl-1H-pyrazol-4-yl)amino)-5-fluoropyrimidin-4-yl)oxy)methyl)cyclo-hexyl)acetamide] | < 0.05
Cc1nn(C(F)F)cc1Nc1ncc(F)c(OC[C@H]2CC[C@H](O)CC2)n1 [Example 232, (1R,4R)-4-(((2-((1-(difluoromethyl)-3-methyl-1H-pyrazol-4-yl)amino)-5-fluoropyrimidin-4-yl)oxy)methyl)cyclohexan-1-ol] | 0.05 to 0.2

Structure (SMILES) | IC50 [µM]
Cc1nn(C(C)(C)C#N)cc1Nc1ncc(Cl)c(OCC2(F)CCNCC2)n1 [Example 20, 2-(4-((5-chloro-4-((4-fluoropiperidin-4-yl)methoxy)pyrimidin-2-yl)amino)-3-methyl-1H-pyrazol-1-yl)-2-methylpropanenitrile] | < 0.05
OC1CC2(C1)CC(COc1nc(Nc3ccc(N4CCOCC4)cc3)ncc1F)C2 (stereo not shown) [Example 134, 6-(((5-fluoro-2-((4-morpholinophenyl)amino)pyrimidin-4-yl)oxy)methyl)spiro[3.3]heptan-2-ol] | < 0.05
OCCn1ncc(Nc2ncc(F)c(OC[C@H]3CC[C@H](O)CC3)n2)c1Cl [Example 240, (1R,4R)-4-(((2-((5-chloro-1-(2-hydroxyethyl)-1H-pyrazol-4-yl)amino)-5-fluoropyrimidin-4-yl)oxy)methyl)cyclohexan-1-ol] | 0.05 to 0.2
N[C@H]1CC[C@@H](COc2ccnc(Nc3ccc(N4CCOCC4)cc3)n2)CC1 [Example 1, 4-(((1S,4S)-4-aminocyclohexyl)methoxy)-N-(4-morpholinophenyl) pyrimidin-2-amine] | < 0.05
O[C@@H]1CC[C@H](COc2nc(Nc3ccc(N4CCOCC4)cc3)ncc2F)C[C@H]1F [Example 258, (1R,2R,4S)-2-fluoro-4-(((5-fluoro-2-((4-morpholinophenyl)amino)pyrimidin-4-yl)oxy)methyl)cyclohexan-1-ol] | 0.05 to 0.2
CC(C)n1cc(Nc2ncc(F)c(OC[C@H]3CC[C@H](O)CC3)n2)c(Cl)n1 [Example 238, (1R,4R)-4-(((2-((3-chloro-1-isopropyl-1H-pyrazol-4-yl)amino)-5-fluoropyrimidin-4-yl)oxy)methyl)cyclohexan-1-ol] | 0.2 to 0.4
Cc1nn(C2CC(C#N)C2)cc1Nc1ncc(Cl)c(OCC2CCOC(C)(C)C2)n1 (stereo not shown) [Example 150, 3-(4-((5-chloro-4-((2,2-dimethyltetrahydro-2H-pyran-4-yl)methoxy)pyrimidin-2-yl)amino)-3-methyl-1H-pyrazol-1-yl)cyclobutane-1-carbonitrile] | 0.05 to 0.2
CC(=O)N[C@H]1CC[C@@H](COc2nc(Nc3cn(C(C)(C)C#N)nc3C)ncc2F)C1 [Example 180, N-((1S,3R)-3-(((2-((1-(2-cyanopropan-2-yl)-3-methyl-1H-pyrazol-4-yl)amino)-5-fluoropyrimidin-4-yl)oxy)methyl)cyclo-pentyl)acetamide] | < 0.05
N[C@H]1CC[C@H](COc2nc(Nc3ccc(N4CCOCC4)cc3)ncc2Cl)CC1 [Example 9, 4-(((1R,4R)-4-aminocyclohexyl)methoxy)-5-chloro-N-(4-morpholinophenyl) pyrimidin-2-amine] | < 0.05
CC(=O)N[C@H]1CC[C@H](COc2nc(Nc3ccc(N4CCOCC4)cc3)ncc2Cl)CC1 [Example 80, N-((1R,4R)-4-(((5-chloro-2-((4-morpholinophenyl)amino)pyrimidin-4-yl)oxy)methyl)cyclo-hexyl)acetamide] | < 0.05
CC(=O)N[C@H]1CC[C@H](COc2nc(Nc3ccc(N4C[C@@H](C)O[C@@H](C)C4)cc3)ncc2F)CC1 [Example 83] | < 0.05
Cc1nn(C(C)(C)C#N)cc1Nc1ncc(F)c(OCC23CCC(O)(CC2)CC3)n1 [Example 257, 2-(4-((5-fluoro-4-((4-hydroxybicyclo[2.2.2]octan-1-yl)methoxy)pyrimidin-2-yl)amino)-3-methyl-1H-pyrazol-1-yl)-2-methylpropanenitrile] | 0.05 to 0.2
Cc1nn(C2CC(C#N)C2)cc1Nc1ncc(Cl)c(OCC2CCNCC2F)n1 (stereo not shown) [Example 26, 3-(4-((5-chloro-4-((3-fluoropiperidin-4-yl)methoxy)pyrimidin-2-yl)amino)-3-methyl-1H-pyrazol-1-yl)cyclobutane-1-carbonitrile] | 0.05 to 0.2
CC(=O)N[C@H]1CC[C@H](COc2nc(Nc3cn(C4CC4)nc3Cl)ncc2F)CC1 [Example 203, N-((1R,4R)-4-(((2-((3-chloro-1-cyclopropyl-1H-pyrazol-4-yl)amino)-5-fluoropyrimidin-4-yl)oxy)methyl)cyclo-hexyl)acetamide] | < 0.05
O[C@H]1CC[C@H](COc2nc(Nc3ccc(N4CCOCC4)cc3)nc(Cl)c2F)CC1 [Example 246, (1R,4R)-4-(((6-chloro-5-fluoro-2-((4-morpholinophenyl)amino)pyrimidin-4-yl)oxy)methyl)cyclohexan-1-ol] | > 0.4
CC(=O)N1CCC(COc2nc(Nc3ccc(N4CCOCC4)cc3)ncc2F)C(F)C1 (single isomer, unassigned) [Example 172, 1-(3-fluoro-4-(((5-fluoro-2-((4-morpholinophenyl)amino)pyrimidin-4-yl)oxy)methyl)piper-idin-1-yl)ethan-1-one] | 0.05 to 0.2
COCCn1ncc(Nc2ncc(F)c(OC[C@H]3CC[C@H](O)CC3)n2)c1Cl [Example 241, (1R,4R)-4-(((2-((5-chloro-1-(2-methoxyethyl)-1H-pyrazol-4-yl)amino)-5-fluoropyrimidin-4-yl)oxy)methyl)cyclohexan-1-ol] | 0.05 to 0.2
